Reference: patent publication US20250034182A1, “PHOSPHOLIPID COMPOUNDS AND METHODS OF MAKING AND USING THE SAME” (priority 2021, published 2025)

Key:
Format in all cases: cell-based
[1] = system: Recombinant Respiratory Syncytial virus strain A2 containing the firefly luciferase reporter (RSV-Fluc) in NHBE cells; experiment: RSV NHBE FLuc EC50 (Example I); settings: human respiratory syncytial virus, 72 h, read-out: RSV NHBE FLuc EC50 (nM) (per Ex. I)
Description: Normal human bronchial epithelial (NHBE) cells are purchased from Lonza (Walkersville, MD Cat #CC-2540) and maintained in Bronchial Epithelial Cell Growth Medium (BEGM) (Lonza, Walkersville, MD, Cat #CC-3170) with all provided supplements in the BulletKit. Cells are passaged 2-3 times per week to maintain sub-confluent densities and are used for experiments at passages 2-4.
Recombinant Respiratory Syncytial virus strain A2 containing the firefly luciferase reporter between the P and M genes (RSV-Fluc, 6.3×10^6 TCID50/mL) is purchased from Viratree (Durham, NC, Cat #R^145).
NHBE cells (5×10^3/well) are seeded in 100 μL white wall/clear bottom 96-well plates (Corning) with culture medium and are incubated for 24 hours at 37° C. with 5% CO2. On the following day, three-fold serial dilutions of compounds prepared in DMSO are added to the wells using the HP D300e digital dispenser with normalization to the highest concentration of DMSO in all wells. The cells are then infected with RSV-Fluc diluted with BEGM media at an MOI of 0.1 for a final volume of 200 μL media/well. Uninfected and untreated wells are included as controls to determine compound efficacy against RSV-Fluc. Following incubation with compound and virus for three days at 37° C. with 5% CO2, 100 μL of culture supernatant is removed from each well and replaced with 100 μL of ONE-Glo luciferase reagent (Promega, Madison, WI, Cat #E6110). The plates are gently mixed by rocking for 10 minutes at 21° C. and luminescence signal is measured using an Envision plate reader (PerkinElmer). Values are normalized to the uninfected and infected DMSO controls (0% and 100% infection, respectively). Non-linear regression analysis is applied to determine the compound concentration at which 50% luminescence signal is reduced (EC50) using the XLfit4 add-in for MICROSOFT®EXCEL®. All experiments are performed in duplicate with two technical repeats each.

[2] = system: Respiratory syncytial virus recombinant with luciferase (RSV-Luc5) in NHBE cells; experiment: NHBE RSV-Luc5 384-well assay (EC50 RSVFLUC NHBE-384, Example U); settings: human respiratory syncytial virus, 72 h, read-out: RSV FLuc NHBE 384 EC50 (v2) (nM) (per Ex. U)
Description: Normal Human Bronchial Epithelial (NHBE) cells were purchased from Lonza (Walkersville, MD Cat #CC2540) and maintained in BEGM Bronchial Epithelial Cell (Growth Medium BulletKit (Lonza CC-3170).
Cells were thawed, expanded, and were used for experiments at passage 2. Respiratory syncytial virus recombinant with luciferase (RSV-Luc5) (≥1×10^7 Infectious Units/ml (IU/ml) determined by TCID50) was purchased from Microbiologics (Saint Cloud, MN). Viral replication was determined in NHBE cells in the following manner.
(§1) Compounds are prepared in 100% DMSO in 384-well polypropylene plates (Greiner, Monroe, NC, Cat #784201) with 8 compounds per plate in grouped replicates of 4 at 10 serially diluted concentrations (1:3). The serially diluted compounds were transferred to low dead volume Echo plates (Labcyte, Sunnyvale, CA, Cat #LP-0200).
The test compounds were spotted to 384-well assay plates (Greiner, Monroe, NC, Cat #781091) at 200 nL per well. NHBE cells were harvested and suspended in BEGM Bronchial Epithelial Cell Growth Medium BulletKit and seeded to the pre-spotted assay plates at 5,000 cells per well in 30 μL. RSV-Luc5 virus was diluted in BEGM Bronchial Epithelial Cell Growth Medium BulletKit at 500,000 Infectious Units (IU) per mL and 10 μL per well was added to the assay plates containing cells and compounds, for an MOI of 1. The assay plates were incubated for 3 days at 37° C. and 5% CO2. At the end of incubation, One-Glo reagent (Promega, Madison, WI, Cat #E6120) was prepared. The assay plates and One-Glo reagent were equilibrated to room temperature for at least 15 minutes. 40 μL per well of One-Glo reagent was added and the plates were incubated at room temperature for 15 minutes before reading the luminescence signal on an EnVision multimode plate reader (Perkin Elmer, Waltham, MA). Remdesivir was used as positive control and DMSO was used as negative control. Values were normalized to the positive and negative controls (as 0% and 100% replication, respectively) and data was fitted using non-linear regression analysis by Gilead's dose response tool. The EC50 value for each compound was defined as the concentration reducing the viral replication by 50%.

[3] = RSV NHBE CC50 384 V2 (per Ex. U); settings: human
[4] = system: dengue virus type 2 in Huh7 hepatoblastoma cells; experiment: Dengue Virus-2 Huh-7 EC50 (Example W); settings: MOI of 0.07, CPE, neutral red dye, read-out: Dengue Virus-2 Huh-7 EC50 (nM) (per Ex. W)
Description: (§2) Huh7 hepatoblastoma cells were seeded onto 96-well plates and incubated at 37° C. with 5% CO2 overnight. The plates were seeded at a cell concentration that will yield >70% confluent monolayers in each well after overnight incubation. Eight 3-fold serial dilutions of compounds were diluted in test media (MEM supplemented with 2% FBS and 50 μg/mL gentamicin). The highest test compound concentration was 50 μg/mL. 100 μL of each concentration was added to 5 test wells on the 96-well plate. Of these 5 test wells, 3 wells of each dilution were infected with dengue virus type 2, diluted in test media (approximately 2000 CCID50 per well for an MOI of 0.07). Test medium (100 μL) with no virus was added to 2 wells to represent the uninfected cytotoxicity controls. Six additional infected wells received 100 μL media alone as untreated virus controls. Further, 100 μL of media alone was added to 6 uninfected wells to serve as uninfected, untreated controls. Cultures were incubated at 37° C.+5% CO2 until >80% CPE is observed. After cytopathic effect (CPE) is observed microscopically, 0.011% neutral red dye was added for approximately 2 hours. The neutral red dye was removed and wells were rinsed once with PBS to remove residual, unincorporated dye. A 50:50 Sorensen citrate buffer/ethanol solution was added and incubated at room temperature for >30 minutes with agitation, followed by measurement of neutral red dye using a spectrophotometer at 540 nm. The resulting optical density measurement was converted to percent signal of the infected, untreated cell control normalizing to virus controls. EC50 and CC50 values were determined by linear regression analysis.

[5] = system: Respiratory syncytial virus recombinant with luciferase (RSV-Luc5) in HEp-2 cells; experiment: HEp-2 RSV-Luc5 384-well assay (EC50 RSVFLUC Hep2-384 v2, Example V); settings: human respiratory syncytial virus, HEp-2, 72 h, read-out: RSV Hep-2 FLuc EC50 (v2) (nM) (per Ex. V)
Description: HEp-2 cell line was purchased from ATCC (Manassas, VA Cat #CCL-23) and maintained in Dulbecco's […] (DMEM) (Corning, New York, NY, Cat #15-018CM) supplemented with 10% fetal bovine serum (FBS) (Hyclone, Logan, UT, Cat #SH30071-03) and 1× Penicillin-Streptonycin-L-Glutamine (Corning, New York, NY, Cat #30-009-CI). Cells were passaged 2 times per week to maintain sub-confluent densities and were used for experiments at passage 5-20. Respiratory syncytial virus recombinant with luciferase (RSV-Luc5) (≥1×107 TCID50/ml) was purchased from Microbiologics (Saint Cloud, MN). Viral replication was determined in HEp-2 cells in the following manner.
as §1
The test compounds were spotted to 384-well assay plates (Greiner, Monroe, NC, Cat #781091) at 200 nL per well. HEp-2 cells were harvested and suspended in DMEM (supplemented with 10% FBS and 1× Penicillin-Streptomycin-L-Glutamine) and seeded to the pre-spotted assay plates at 4,000 cells per well in 30 μL. RSV-Luc5 viruses were diluted in DMEM (supplemented with 10% FBS and 1× Penicillin-Streptomycin-L-Glucamine) at 200,000 Infectious Units (IU) per mL and 10 μL per well was added to the assay plates containing cells and compounds, for an MOI=0.5. The assay plates were incubated for 3 days at 37° C. and 5% CO2. At the end of incubation, One-Glo reagent (Promega, Madison, WI, Cat #E6120) was prepared. The assay plates and One-Glo reagent were equilibrated to room temperature for at least 15 minutes. 40 μL per well of One-Glo reagent was added and the plates were incubated at room temp for 15 minutes before reading the luminescence signal on an EnVision multimode plate reader (Perkin Elmer, Waltham, MA). Remdesivir was used as positive control and DMSO was used as negative control. Values were normalized to the positive and negative controls (as 0% and 100% replication, respectively) and data was fitted using non-linear regression analysis by Gilead's dose response tool. The EC50 value for each compound was then determined as the concentration reducing the viral replication by 50%.

[6] = RSV HEP2-CC50-384-V2 (per Ex. V); settings: human
in vitro = settings: human
Description: as §2

[7] = system: Human Rhinovirus 16 (HRV16) in H1-HeLa cells; experiment: H1-HeLa HRV-CTG EC50, HRV16 (Example Z); settings: Rhinovirus A, HRV16, 96 h, MOI 0.25, 4 days, Celltiter-Glo, read-out: HRV 16 HELA EC50 (nM) (per Ex. Z)
Description: (§3) H1-Hela cell line (ATCC, Manassas, VA, Cat #CRL-1958) was maintained in Dulbecco's […] (DMEM) (Corning, New York, NY, Cat #15-018CM) supplemented with 10% fetal bovine serum (FBS) (Hyclone, Logan, UT, Cat #SH30071-03), and 1× Penicillin-Streptomycin-L-Glutamine (Coming, New York, NY, Cat #30-009-C1). Cells were passaged 2 times per week to maintain sub-confluent densities and were used for experiments at passage 5-30. The Human Rhinovirus 1B (HRV1B) (ATCC, Manassas, VA, Cat #VR-1645), Human Rhinovirus 14 (HRV14) (ATCC, Manassas, VA, Cat #VR-284), and Human Rhinovirus 16 (HRV16) (ATCC, Manassas, VA, Cat #BR-283) was obtained through ATCC. Viral infection was monitored by determining viability of H1-HeLa cells as described below.
as §1, with “Test molecules” for “Compounds”
(§4) The test compounds were spotted to 384-well assay plates (Greiner, Monroe, NC, Cat #781091) at 200 nL per well using an Echo acoustic dispenser (Labcyte, Sunnyvale, CA). H1-HeLa cells were harvested and suspended in DMEM (supplemented with 2% FBS and 1× Penicillin-Streptomycin-L-Glutamine) and seeded to the pre-spotted assay plates at 5,000 cells per well in 30 μL. HRV1B, HRV14, and HRV16 was diluted in DMEM (supplemented with 2% FBS and 1× Penicillin-Streptomycin-L-Glutamine) at 97.1 million Infectious Units (IU) per mL, 151 million IU per mL and 221 million IU per mL respectively. 10 μL of virus per well was added to the assay plates containing cells and compounds, for an MOI of 0.5, 1.0, and 0.25 respectively. The assay plates were incubated for 4 days at 37° C. and 5% CO2. At the end of incubation, Celltiter-Glo (Promega, Madison, WI, Cat #G7573) was prepared. The assay plates and Celltiter-Glo reagent were equilibrated to room temperature for at least 15 minutes. 40 μL per well of Celltiter-Glo reagent was added and the plates were incubated at room temperature for 15 minutes before reading the luminescence signal on an EnVision multimode plate reader (Perkin Elmer, Waltham, MA). Rupintrivir was used as positive control and DMSO was used as negative control. Values were normalized to the positive and negative controls (as 0% and 100% replication, respectively) and data was fitted using non-linear regression analysis by Gilead's dose response tool. The EC50 value for each compound was defined as the concentration reducing viral replication by 50%.

[8] = system: Human Rhinovirus 1B (HRV1B) in H1-HeLa cells; experiment: H1-HeLa HRV-CTG EC50, HRV1B (Example Z); settings: Rhinovirus A, 96 h, MOI 0.5, 4 days, Celltiter-Glo, read-out: HRV 1B HELA EC50 (nM) (per Ex. Z)
Description: as §3
as §1, with “Test molecules” for “Compounds”
as §4

[9] = system: Human Rhinovirus 14 (HRV14) in H1-HeLa cells; experiment: H1-HeLa HRV-CTG EC50, HRV14 (Example Z); settings: Rhinovirus B, HRV14, 96 h, MOI 1.0, 4 days, Celltiter-Glo, read-out: HRV14 HELA EC50 (nM) (per Ex. Z)
Description: as §3
as §1, with “Test molecules” for “Compounds”
as §4

Row | SMILES | EC50 [1] | EC50 [2] | CC50 at 3 days [3] | EC50 [4] | EC50 [5] | CC50 at 3 days [6] | CC50 (in vitro) | EC50 [7] | EC50 [8] | EC50 [9]
1 | CCCCCCCCCCCCCCCCCCC[C@@H](COP(=O)(O)OC[C@@]1(C#N)O[C@@H](c2ccc3c(N)ncnn23)[C@H](O)[C@@H]1O)OCc1cc(F)cc(C#N)c1 [Compound 31, ((2R,3S,4R)-5-(4-aminopyrrolo[2,1-f][1,2,4]triazin-7-yl)-2-cyano-3,4-dihydroxytetrahydrofuran-2-yl)methyl ((S)-2-((3-cyano-5-fluorobenzyl)oxy)henicosyl) hydrogen phosphate] | 229 nM | 134 nM | 1900 nM |  |  |  |  |  |  | 
2 | CCCCCCCCCCCCCCOC[C@H](COP(=O)(O)OC[C@@]1(C#N)O[C@@H](c2ccc3c(N)ncnn23)[C@H](O)[C@@H]1O)Oc1ccc(C#N)cn1 [Compound 71] | 199 nM |  |  | 33000 nM | 2580 nM | > 50000 nM | > 50000 nM |  |  | 
3 | CCCCCCCCCCCCCCCOC[C@H](COP(=O)(O)OC[C@@]1(C#N)O[C@@H](c2ccc3c(N)ncnn23)[C@H](O)[C@@H]1O)OCc1cc(F)cc(C#N)c1 [Compound 99, ((2R,3S,4R,5S)-5-(4-aminopyrrolo[2,1-f][1,2,4]triazin-7-yl)-2-cyano-3,4-dihydroxytetrahydrofuran-2-yl)methyl ((R)-2-((3-cyano-5-fluorobenzyl)oxy)-3-(pentadecyloxy)propyl) hydrogen phosphate] |  | 47 nM | 1140 nM |  | 166 nM | 42300 nM |  | 33 nM | 19 nM | 37 nM
